According to patent US20160368953A1, “BACTERIOCIN WITH NOVEL ACTIVITY” (The United States of America, as represented by the …, priority 2015, published 2016):

Experiments:
Propionibacterium acnes = test: agar diffusion method, zones of inhibition; format: cell-based; set-up: key to Growth Inhibitory Activity: +++ represents very strong growth inhibition; ++ represents strong growth inhibition; + represents mild growth inhibition; − represents no growth inhibition
Description: S. thermophilus strain 110 (NRRL B59671) are grown overnight in tryptone-yeast extract-lactose (TYL) medium. The overnight culture is diluted in fresh TYL medium and grown for 7 or 24 hours. At each time point, a 1 ml sample is collected. Bacterial cells are removed from the 1 ml samples by centrifugation; and the cell free supernatants (CFS) are tested for antimicrobial activity using an agar diffusion method (see Gilbreth and Somkuti (2005) and Example 2 supra). Target agar plates are prepared by inoculating molten microbiological medium with the overnight growth of susceptible bacteria (0.5% v/v; 250 μl of culture into 50 ml of medium). The inoculated molten agar is poured into square dishes and left to harden at room temperature (approximately 10 minutes). Wells are made in the solidified agar plates using a sterile glass Pasteur pipette, and each well is filled with 50 μl of CFS samples. The agar plates are stored overnight at 4° C. to allow for diffusion of the CFS into the agar medium. The agar plates with loaded wells are then incubated at 37° C. to allow for growth of the target bacterium. The agar plates are monitored for growth of the target bacterium (agar medium becomes turbid), and the presence of clear zones around wells. […]

[1] = tested on: Lactobacillus acidophilus; test: agar diffusion method, zones of inhibition; format: cell-based; set-up: key: +++ represents very strong growth inhibition; ++ represents strong growth inhibition; + represents mild growth inhibition; − represents no growth inhibition; details: 50 μl CFS of S. thermophilus strain 110 grown in TYL, 7 h and 24 h samples identical; target in MRS
Description: (§1) S. thermophilus strain 110 (NRRL B59671) are grown overnight in tryptone-yeast extract-lactose (TYL) medium. The overnight culture is diluted in fresh TYL medium and grown for 7 or 24 hours. At each time point, a 1 ml sample is collected. Bacterial cells are removed from the 1 ml samples by centrifugation; and the cell free supernatants (CFS) are tested for antimicrobial activity using an agar diffusion method (see Gilbreth and Somkuti (2005) and Example 2 supra). Target agar plates are prepared by inoculating molten microbiological medium with the overnight growth of susceptible bacteria (0.5% v/v; 250 μl of culture into 50 ml of medium). The inoculated molten agar is poured into square dishes and left to harden at room temperature (approximately 10 minutes). Wells are made in the solidified agar plates using a sterile glass Pasteur pipette, and each well is filled with 50 μl of CFS samples. The agar plates are stored overnight at 4° C. to allow for diffusion of the CFS into the agar medium. The agar plates with loaded wells are then incubated at 37° C. to allow for growth of the target bacterium. The agar plates are monitored for growth of the target bacterium (agar medium becomes turbid), and the presence of clear zones around wells. […] Furthermore, antimicrobial activity is shown to be associated with a low-molecular weight peptide based on gel electrophoretic analysis (Gilbreth & Somkuti 2005). Agar diffusion assays are repeated a minimum of three times.

Streptococcus uberus = test: agar diffusion method, zones of inhibition; format: cell-based; set-up: key: +++ represents very strong growth inhibition; ++ represents strong growth inhibition; + represents mild growth inhibition; − represents no growth inhibition; details: 50 μl CFS of S. thermophilus strain 110 grown in TYL, 7 h and 24 h samples identical; target in TYL
Description: as §1

[2] = tested on: Streptococcus dysgalactiae; test: agar diffusion method, zones of inhibition; format: cell-based; set-up: key: +++ represents very strong growth inhibition; ++ represents strong growth inhibition; + represents mild growth inhibition; − represents no growth inhibition; details: 50 μl CFS of S. thermophilus strain 110 grown in TYL, 7 h and 24 h samples identical; target in TYL
Description: as §1

Streptococcus agalactiae = test: agar diffusion method, zones of inhibition; format: cell-based; set-up: key: +++ represents very strong growth inhibition; ++ represents strong growth inhibition; + represents mild growth inhibition; − represents no growth inhibition; details: 50 μl CFS of S. thermophilus strain 110 grown in TYL, 7 h and 24 h samples identical; target in TYL
Description: as §1

Pediococcus acidilactici [3] = details: Gilbreth and Somkuti (2005); positive control; cited from earlier work
Pediococcus acidilactici [4] = test: agar diffusion method, zones of inhibition; format: cell-based; set-up: key: +++ represents very strong growth inhibition; ++ represents strong growth inhibition; + represents mild growth inhibition; − represents no growth inhibition; details: 50 μl CFS of S. thermophilus strain 110 grown in TYL, 7 h and 24 h samples identical; target in MRS
Description: (§2) Bacteriocin activity is measured using an agar diffusion method (see, Gilbreth & Somkuti (2005)). Cultures of S. thermophilus strain 110 (NRRL B59671) and S. thermophilus strain LMD-9 are grown at 37° C. to an OD660 between 0.8 and 1.0 in 10 ml tryptone-yeast extract medium (Somkuti & Steinberg 1986) formulated with lactose (TYL) or glucose (TYG), or M17 medium (Becton Dickinson Co., Sparks, Md.) formulated with glucose (M17G) or lactose (M17L). Cells are pelleted by high-speed centrifugation for collection of cell-free supernatants (CFS). CFS (˜50 μl) are loaded into precast wells in an agar medium seeded with the target bacteria (0.5% v/v). Bacterial targets included: S. thermophilus strain ST113 in TYL, P. acidilactici in MRS (Becton Dickinson Co., Sparks, Md.), and L. innocua in BHI (Beckton Dickinson Co., Sparks, Md.). Plates are allowed to equilibrate overnight at 4° C., and then are incubated at 37° C. for 8 hours and are examined for the appearance of zones of inhibition.
(§3) S. thermophilus strain 110 (NRRL B59671) are grown overnight in tryptone-yeast extract-lactose (TYL) medium. The overnight culture is diluted in fresh TYL medium and grown for 7 or 24 hours. At each time point, a 1 ml sample is collected. […] The agar plates are monitored for growth of the target bacterium (agar medium becomes turbid), and the presence of clear zones around wells. […]

Listeria innocua = test: agar diffusion method, zones of inhibition; format: cell-based; set-up: key: +++ represents very strong growth inhibition; ++ represents strong growth inhibition; + represents mild growth inhibition; − represents no growth inhibition; details: 50 μl CFS of S. thermophilus strain 110 grown in TYL, 7 h and 24 h samples identical; target in BHI
Description: as §2, §3

Streptococcus mutans = test: agar diffusion method, zones of inhibition; format: cell-based; set-up: key to Growth Inhibitory Activity: +++ represents very strong growth inhibition; ++ represents strong growth inhibition; + represents mild growth inhibition; − represents no growth inhibition
Description: as §2, §1

Streptococcus pyogenes = test: agar diffusion method, zones of inhibition; format: cell-based; set-up: key to Growth Inhibitory Activity: +++ represents very strong growth inhibition; ++ represents strong growth inhibition; + represents mild growth inhibition; − represents no growth inhibition
Description: as §2, §1

Pediococcus acidilactici [5] = test: antimicrobial activity of recombinant BlpU, SDS-PAGE gel overlay method; format: cell-based; details: expressed in E. coli BL21 pGEX-6P-1/blpU; before or after Factor Xa cleavage of the GST tag; FIG. 6
Excerpt: The nucleic acid sequence (162 base pairs; SEQ ID NO: 37) corresponding to the mature BlpU peptide (not including the 23 amino acid leader peptide) is amplified from the S. thermophilus strain 110 (NRRL-B59671) chromosome by PCR with the primers: forward: […] (BamHI—recognition site underlined; nucleotides encoding the Factor Xa recognition sequence (isoleucine-glutamic acid-glycine-arginine) are italicized) (SEQ ID NO: 34) and reverse: […] (XhoI—recognition site underlined) (SEQ ID NO: 35). […] The DNA fragment is subsequently cloned into the pGEX 6P-1 plasmid (GE Healthcare Life Sciences, Piscataway, N.J.) at the BamHI and XhoI sites. The resulting plasmid (pGEX 6P-1/blpU) encodes for a fusion protein with the glutathione S transferase (GST) tag on the N-terminus of BlpU, and expression is under control of an isopropyl β-D-1-thiogalactopyranoside (IPTG) inducible promoter. The plasmid is transformed into E. coli strain BL21 for recombinant expression of the fusion protein. […] The eluent from the dialysis bag is recovered and analyzed by SDS-PAGE for the presence of a ˜31 kDa fusion protein. […] The cleaved product is analyzed by SDS-PAGE for the presence of BlpU (silver nitrate staining) and antimicrobial activity against Pediococcus acidilactici (gel overlay method; Gilbreth and Somkuti, 2005).

[6] = 50 μl CFS of S. thermophilus strain 110 grown in TYL, 7 h and 24 h samples identical, target in BHI

## thermophilin 110: mature bacteriocin produced by S. thermophilus strain 110, amino acids 24-76 of SEQ ID NO: 1 (SEQ ID NO: 36), about 5 kDa (GCSWGGFAKQGVATGVGNGLRLGIKTRTWQGAVAGAAGGAIVGGVGYGATCWW; listed as Streptococcus thermophilus)
Propionibacterium acnes; [6]
  Growth Inhibitory Activity: ++
Propionibacterium acnes; text summary of Table 4
  growth inhibitory activity against P. acnes (in words): strong growth inhibitory activity
[1]
  Growth Inhibitory Activity: +++
Streptococcus uberus
  Growth Inhibitory Activity: +
[2]
  Growth Inhibitory Activity: −
Streptococcus agalactiae
  Growth Inhibitory Activity: −
Pediococcus acidilactici [3]
  zones of inhibition against P. acidilactici in prior studies: very strong zones of inhibition
Pediococcus acidilactici [4]
  Growth Inhibitory Activity: +++
Listeria innocua
  Growth Inhibitory Activity: +
Streptococcus mutans; 50 μl CFS of S. thermophilus strain 110 grown in TYL, 7 h and 24 h samples identical, target in Todd Hewitt
  Growth Inhibitory Activity: ++
Streptococcus mutans; text summary of Table 4
  growth inhibitory activity against S. mutans (in words): strong growth inhibitory activity
Streptococcus pyogenes; [6]
  Growth Inhibitory Activity: +++
Streptococcus pyogenes; text summary of Table 4
  growth inhibitory activity against S. pyogenes (in words): very strong growth inhibitory activity
Pediococcus acidilactici [5]
  antimicrobial activity against P. acidilactici: inhibition zone
